Here are results for 2 compounds from US9861703B2 (Jinan Platinum Pharmatech Co. Ltd., priority 2013, dated 2018).

What is called IC50 is the concentration needed to halve the response being measured. A word on the EC50: it is the concentration needed to bring the measured effect to its halfway point. Higher therefore signals a less potent agent.

The target of data set [1] is T1, Aminopeptidase N (Sus scrofa, UniProt P15145).
T1 construct: purchased Sigma
T1 sequence (P15145 1-963): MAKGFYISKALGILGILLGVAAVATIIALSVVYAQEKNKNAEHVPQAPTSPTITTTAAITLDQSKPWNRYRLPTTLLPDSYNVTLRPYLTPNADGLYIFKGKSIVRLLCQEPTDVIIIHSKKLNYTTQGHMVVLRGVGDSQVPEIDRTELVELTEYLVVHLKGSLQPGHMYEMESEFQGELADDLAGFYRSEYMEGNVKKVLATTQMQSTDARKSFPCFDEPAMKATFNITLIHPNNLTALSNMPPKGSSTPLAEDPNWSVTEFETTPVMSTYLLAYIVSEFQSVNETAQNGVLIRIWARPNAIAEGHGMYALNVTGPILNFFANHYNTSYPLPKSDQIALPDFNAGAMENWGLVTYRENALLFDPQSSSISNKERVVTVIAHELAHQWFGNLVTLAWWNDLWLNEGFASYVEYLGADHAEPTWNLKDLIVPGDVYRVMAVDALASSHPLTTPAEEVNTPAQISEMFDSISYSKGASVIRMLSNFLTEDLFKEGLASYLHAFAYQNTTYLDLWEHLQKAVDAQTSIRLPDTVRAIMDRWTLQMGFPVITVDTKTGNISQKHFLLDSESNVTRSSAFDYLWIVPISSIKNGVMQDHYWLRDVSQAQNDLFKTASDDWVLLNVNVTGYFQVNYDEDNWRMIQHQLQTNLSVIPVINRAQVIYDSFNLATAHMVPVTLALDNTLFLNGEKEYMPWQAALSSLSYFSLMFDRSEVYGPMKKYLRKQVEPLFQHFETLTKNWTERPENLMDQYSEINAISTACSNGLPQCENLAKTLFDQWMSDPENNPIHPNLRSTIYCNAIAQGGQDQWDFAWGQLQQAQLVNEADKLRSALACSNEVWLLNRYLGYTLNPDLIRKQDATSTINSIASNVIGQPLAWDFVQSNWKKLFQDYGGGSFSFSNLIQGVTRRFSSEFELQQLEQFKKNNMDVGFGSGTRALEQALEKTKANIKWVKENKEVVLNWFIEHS
As to the kind of experiment: Inhibition activity against enzyme in vitro (aminopeptidase N, L-Leu-p-nitroanilide substrate). The class given is biochemical. The conditions noted are these: for IC50: 37° C., 0.5 h, absorbance 405 nm, PBS pH 7.2, read-out: IC50(μM) APN. The procedure: Aminopeptidase N and L-Leu-p-nitroanilide as substrate were purchased from Sigma cooperation.
Preparation of Buffer Solution: 12.89 g Na2HPO4.12H2O and 2.18 g NaH2PO4.2H2O were dissolved in a 1000 mL volumetric flask, then the mixture was diluted to 1000 mL with fresh distilled water to obtain 50 mM Phosphate Buffer solution (PBS, pH 7.2), which was kept at room temperature to spare.
Aminopeptidase N was dissolved in the buffer solution to obtain 0.1 IU/mL solution.
The substrate was dissolved in DMSO to obtain a […] solution, which was kept in refrigerator to spare.
The aminopeptidase N solution 10 μL, the substrate solution 5 μL and compound with different concentration 40 μL were added into a 96-well cell plate, and then adjusted to 200 μL with phosphate buffer saline solution (pH 7.2). […] And the substrate solution 5 μL of blank group was adjusted to 200 μL with buffer solution. The mixture was incubated at 37° C. for 0.5 h, and absorbance was then determined at 405 nm wavelength Inhibitory ratio can be calculated as follows: […]
According to concentration of compound and corresponding inhibitory ratio, the IC50 value was calculated by using a fitting curve of Origin 7.5 software.

The subject of data set [2] is clear-cell ovarian carcinoma cell line ES-2. As to the kind of experiment: MTT proliferation inhibition, ES-2. As to conditions: for EC50: 48 h. The class given is cell-based. How it is done: (§1) Human leukemia cell line K562, clear-cell ovarian carcinoma cell line ES-2, human prostate cancer cell line PC-3, human breast cancer cell line MCF-7, cell line Hela, human liver cancer cell line H7402 and human ovarian cancer cell line 3-AO were transferred into a culture flask and were cultured in a medium at 37° C. in a 5% CO2 and saturation humidity. One bottle of cells in logarithmic growth phase was picked out and was blew and beaten to be uniform with a pipette, then took some cell suspension solution to prepare blood counting plate smear to count cells under inverted microscope, and then adjusted the cell number to be 1×10^5/mL by adding some culture medium. Cells were seeded on a 96-well plate on which also drug tests performed. Blank control group, negative control group, positive control group and drug test group were established on the plate while the surrounding wells of the plate were not used (but filled with sterile PBS), wherein the blank control groups were prepared by addition of culture medium 150 μL per well, the negative control groups were prepared by addition of cell suspension solution 100 μL per well and culture medium 50 μL per well, the positive control groups were prepared by addition of cell suspension solution 100 μL per well and positive control drug solution 50 μL per well, the drug test groups were prepared by addition of cell suspension solution 100 μL per well and test compound solution 50 μL per well, and there were 5 different concentrations of drug in the positive control group and the drug test group respectively: 0.01, 0.1, 1, 10, 100 μmol·L^−1, each concentration was established with 3 parallel wells. After the drug was added, the 96-well plate was incubated for 48 h at 37° C. in a CO2 incubator of 5% CO2 and saturation humidity. Upon completion of the incubation, 20 μL MTT solution (concentration was 5 mg/mL) was added to each well and incubated for an additional 4 h, and after the 96-well plate was centrifuged at 2000 rpm for 30 min, medium of each well was suck out carefully and removed and 100 μL DMSO was added instead, followed by vibrating on a tablet shaker for 15 min to re-dissolve formazan crystals completely. OD value of each well was measured at 570 nm wavelength using an enzyme-linked immunosorbent assay reader to calculate cellular proliferation inhibitory ratio of each drug in different concentrations. And half-inhibitory concentration (IC50) was calculated using statistical software SPSS 16.0, wherein the cellular proliferation inhibitory ratio can be calculated as following equation: […]

Data set [3] concerns human prostate cancer cell line PC-3. Put plainly: MTT proliferation inhibition, PC-3. It is filed as cell-based. The conditions noted are these: 48 h. How it is done:
as §1

The subject of data set [4] is human liver cancer cell line H7402. As to the kind of experiment: MTT proliferation inhibition, H7402. The class given is cell-based. As to conditions: 48 h. The procedure:
as §1

The subject of data set [5] is 7 cell lines (ES-2, K562, PC-3, MCF-7, Hela, H7402, 3-AO). Put plainly: MTT proliferation inhibition, all 7 tumor cell lines (summary in words). It is filed as cell-based. How it is done:
as §1

Data set [6] relates to liver cancer H22. Put plainly: Inhibition assay of intravenous administration against liver cancer H22 (Example 33). As to conditions: tail intravenous injection; for Number of mice alive: 7 mice per group, two cycles; for Tumor weight / inhibitory ratio (%): sacrificed after 13 days. How it is done:
Extracted the ascites from H22 ascites tumour bearing mice, washed the ascites with sterile PBS for three times and then resuspended the cells with sterile PBS (cells counts: 3.75×10^7 cells/mL), inoculated it into right oxter of Kunming mice 100 uL per mouse.
The H22 tumor-bearing mice were randomized to 4 groups (7 mice per group) after being weighted. […] The size of tumor was measured by using a vernier calliper and weight of mouse by using an electronic balance at the beginning and ending of every cycle, then calculated their mean value. The mice were sacrificed after 13 days and the tumors were taken out and weighted. Tumor volume and inhibitory ratio were calculated as the following equation (L and W referred to length and width of tumor respectively): […]

The structures appear in SMILES notation.

`CC(C)C[C@H](NC(=O)[C@@H](O)[C@H](N)Cc1ccccc1)C(=O)OCn1cc(F)c(=O)[nH]c1=O.Cl` [BC-01, (S)-(5-fluoro-2,4-dioxo-3,4-dihydropyrimidinyl-1(2H))methyl-2-((2S,3R)-3-(amino)-2-hydroxy-4-phenylbutyryl)-4-methylpentanoate hydrochloride]: in data set [1], the “inhibitory activity against aminopeptidase N compared with positive control ubenimex” value is given as “comparable activity with ubenimex” and the IC50 was found to be 6.98 µM. The same compound returned an EC50 in data set [2] of 2.53 µM. Also, the response in data set [3] was half-maximal at 10.7 µM (EC50). This compound displayed an EC50 in data set [4] of 1.86 µM. For the same compound, the “anti-proliferation effect against all the tumor cells” value in data set [5] is reported as “obvious anti-proliferation effect”. In addition, in data set [6] (50 mg/kg/d), the “Number of mice alive” value turned out to be 7, the “Body weight(g) Beginning” value turned out to be 30.32 ± 1.57 g, the “Body weight(g) Ending” value amounted to 31.53 ± 4.71 g and the “Tumor weight” value came to 0.58 ± 0.12 g. Also, the “inhibitory ratio (%)” value in data set [6] (50 mg/kg/d) was determined as 57.66%. In data set [6] (70 mg/kg/d), the “Number of mice alive” value was 7, the “Body weight(g) Beginning” value is given as 30.00 ± 1.15 g, the “Body weight(g) Ending” value was found to be 31.05 ± 1.78 g and the “Tumor weight” value stood at 0.37 ± 0.08 g. Further, in data set [6] (70 mg/kg/d), the “inhibitory ratio (%)” value was 73.00%.
As for `CC(C)C[C@H](NC(=O)[C@@H](O)[C@H](N)Cc1ccccc1)C(=O)NCC(=O)OCn1cc(F)c(=O)[nH]c1=O.Cl` [BC-02, (5-fluoro-2,4-dioxo-3,4-dihydropyrimidinyl-1(2H))methyl-2-((S)-2-((2S,3R)-3-amino-2-hydroxy-4-phenylbutanamido)-4-methylpentanamido)acetate hydrochloride], in data set [1], the “inhibitory activity against aminopeptidase N compared with positive control ubenimex” value was “much more potent than the positive control drug ubenimex” and the IC50 turned out to be 0.38 µM. Besides, in data set [2], the “proliferation inhibition activity against ES-2” value is “great proliferation inhibition activity” and the EC50 amounted to 1.34 µM. In addition, the EC50 in data set [3] came out at 3.45 µM. For the same compound, the EC50 in data set [4] amounted to 11 µM. Moreover, the “anti-proliferation effect against all the tumor cells” value in data set [5] is “obvious anti-proliferation effect”. Further, in data set [6] (70 mg/kg/d), the “Number of mice alive” value came to 7, the “Body weight(g) Beginning” value is given as 31.81 ± 4.99 g, the “Body weight(g) Ending” value was found to be 32.83 ± 4.64 g and the “Tumor weight” value is on record as 0.63 ± 0.01 g. Moreover, the “inhibitory ratio (%)” value in data set [6] (70 mg/kg/d) was 54.31%.
